How the values were obtained:
[1] = Cytotoxicity against human A498 cells assessed as growth inhibition after 48 hrs by SRB assay; format: functional; conditions: A498, 48 h
Ovis aries = species: Ovis aries; experiment: Inhibition of sheep brain tubulin polymerization at 100 uM by DAPI staining-based fluorimetric method relative to control
[2] = Cytotoxicity against human OVCAR3 cells assessed as growth inhibition after 48 hrs by SRB assay; format: functional; conditions: OVCAR-3, 48 h
[3] = Cytotoxicity against human DU145 cells assessed as growth inhibition after 48 hrs by SRB assay; format: functional; conditions: DU-145, 48 h
[4] = Cytotoxicity against human SF295 cells assessed as growth inhibition after 48 hrs by SRB assay; format: functional; conditions: SF-295, 48 h
[5] = Cytotoxicity against human NCI-H460 cells assessed as growth inhibition after 48 hrs by SRB assay; format: functional; conditions: NCI-H460, 48 h
[6] = Inhibition of sheep brain tubulin polymerization by DAPI staining-based fluorimetric method; parameters: species or system Ovis aries
[7] = Cytotoxicity against human HCT116 cells assessed as growth inhibition after 48 hrs by SRB assay; format: functional; conditions: HCT-116, 48 h
[8] = Cytotoxicity against human MDA-MB-435 cells assessed as growth inhibition after 48 hrs by SRB assay; format: functional; conditions: MDA-MB-435, 48 h
[9] = Cytotoxicity against human K562 cells assessed as growth inhibition after 48 hrs by SRB assay; format: functional; conditions: K562, 48 h

SMILES	inhibition (Ovis aries) [%]	IC50 [6] [nM]	further results
COc1ccc(C(=O)c2cc(OC)c(OC)c(OC)c2)cc1O [PHENSTATIN]	99	3400	GI50 [1]: 1190 nM; GI50 [2]: 7 nM; GI50 [3]: 34 nM; GI50 [4]: 163 nM; GI50 [5]: 18 nM
COc1ccc(/C=C\c2cc(OC)c(OC)c(OC)c2)cc1O [COMBRETASTATIN A4]			GI50 [7]: 2 nM; GI50 [8]: 3 nM; GI50 [9]: 4 nM
COc1cc([C@@H]2c3cc4c(cc3C[C@H]3COC(=O)[C@@H]32)OCO4)cc(OC)c1OC [DESOXYPODOPHYLLOTOXIN]	100	2000	
COc1ccc(CN2c3ccccc3Sc3cccnc32)cc1F	72	10500	
COc1ccc(CN2c3ccccc3Oc3ccccc32)c(C(F)(F)F)c1	44		
COc1ccc(C(=O)N2c3ccccc3Sc3ccccc32)c(C(F)(F)F)c1	80	11900	
COc1ccc(Cn2c3ccccc3c(=O)c3ccccc32)cc1F	13		
